Reference: article PMC7576996, “Antiparasitic Behavior of Trifluoromethylated Pyrazole 2-Amino-1,3,4-thiadiazole Hybrids and Their Analogues: Synthesis and Structure-Activity Relationship” (Frontiers in Pharmacology, 2020)

How the values were obtained:
[1] = Cytotoxicity assay in J774A1 macrophages (MTT, 48 h); format: cell-based; details: mouse, pH 7.2, J774A1, 50% inhibition of growth
Protocol: (§1) All the novel trifluoromethylated pyrazoles derivatives 2a–f, 3a–f, and 4a–f were evaluated against the promastigote form of L. amazonensis and the epimastigote form of T. cruzi. The results are reported as the concentration causing a 50% inhibition in cell growth (IC50). Additionally, the toxicity of compounds was evaluated against two different cell lines: epithelial cell LLCMK2 and macrophages J774A1. The antiproliferative and cytotoxic activities are shown in Table 2 , as well as the calculated selectivity index (SI).
(§2) 2.4. Antiproliferative activity […]
(§3) Cytotoxicity activity was determined in LLCMK2 (epithelial cells of kidney of Macaca
(§4) mulatta) cells and J774A1 macrophages. LLCMK2 (epithelial cells of kidney of Macaca mulatta) cells
(§5) were cultured in Dulbecco’s modified Eagle’s medium (DMEM, pH 7.2) supplemented with 10% FBS
(§6) at 37 °C in a 5% CO2 atmosphere. J774A1 macrophages were cultured in RPMI-1640 (pH 7.2) medium
(§7) supplemented with 10% FBS at 37 °C in a 5% CO2 atmosphere.
(§8) 2.4.2. Dilution of compounds
(§9) Stock solutions of the compounds were prepared in DMSO and then diluted in the respective
(§10) medium. The groups (controls and treated) were tested with DMSO concentrations below 1%, with
(§11) 2.4.3. Antiproliferative assay […]
(§12) 2.4.4. Cytotoxicity assay
(§13) LLCMK2 cells (2.5 × 10^5 cells/mL) suspension was prepared in DMEM medium supplemented
(§14) with 10% FBS and added to 96-well plates. Then, the plates were incubated at 37 °C in a
(§15) CO2 atmosphere for 24h to obtain confluent cell growth. After incubation, cells were treated or not
(§16) with different concentrations of compounds diluted in DMEM for 72 h. Macrophage (5 × 10^5 cells/mL)
(§17) suspension was prepared in RPMI-1640 medium supplemented with 10% FBS and added to 96-well
(§18) plates. Then, the plates were incubated at 37 °C in a CO2 atmosphere for 24h to obtain confluent cell
(§19) growth. After incubation, cells were treated or not with different concentrations of compounds diluted
(§20) in RPMI-1640 for 48h. After treatment, medium was removed and cells were incubated with MTT (2
(§21) mg/mL) for 4h. Then, DMSO was added for solubilization of the formazan and analyzed with a reading
(§22) microplate reader (BIO-TEK PowerWave XS spectrophotometer) at 392 nm. The percentage of viable
(§23) cells was calculated in relation to the control to determine the cytotoxic concentration to 50% of the […]

[2] = Cytotoxicity assay in LLCMK2 epithelial cells (MTT, 72 h); format: cell-based; details: Macaca mulatta, LLCMK2 kidney epithelial cells, pH 7.2, LLCMK2, 50% inhibition of growth
Protocol: as §1, §2, §3, §4, §5, §6, §7, §8, §9, §10, §11, §12, §13, §14, §15, §16, §17, §18, §19, §20, §21, §22, §23

[3] = system: epimastigote form of Trypanosoma cruzi; assay: Antiproliferative assay, epimastigote form of Trypanosoma cruzi (XTT, 96 h); format: cell-based; details: for SI T-M, selectivity index (Macrophages CC50/T. cruzi IC50): J774A1 vs epimastigotes; for SI T-E, selectivity index (Epithelial CC50/T. cruzi IC50): LLCMK2 vs epimastigotes; for IC50: Trypanosoma cruzi, epimastigote form, 96 h, mean ± standard deviation, read-out: T. cruzi IC50
Protocol: as §1
(§24) 2.4. Antiproliferative activity
(§25) Promastigotes forms of Leishmania amazonensis (strain WHOM/ BR/75/JOSEFA) were
(§26) cultured in Warren medium (brain heart infusion, hemin, and folic acid; pH 7.4) supplemented with
(§27) 10% fetal bovine serum (FBS) at 25 °C. Epimastigote forms of Trypanosoma cruzi (Y strain) were
(§28) cultured in LIT medium (liver infusion tryptose; hemim, and folic acid; pH 7.4) supplemented with
as §3, §4, §5, §6, §7, §8, §9, §10
(§29) 2.4.3. Antiproliferative assay
(§30) Promastigote forms (1 × 10^6 parasites/mL) were cultured in 96-well plates in the presence and
(§31) absence of different concentrations of compounds diluted in Warren medium supplemented with 10%
(§32) FBS and incubated for 72h. Epimastigote forms (1 × 10^6 parasites/mL) were cultured in 96 -well plates
(§33) in the presence and absence of different concentrations of compounds diluted in LIT medium
(§34) supplemented with 10% FBS and incubated for 96h. After treatment, the parasites were incu bated with
(§35) a solution of 2,3 -bis (2 -methoxy -4-nitro -5-sulfophenyl) -2H-tetrazolium -5-carboxanilide (XTT; 0.5
(§36) mg/mL) and phenazine methanesulfonate activator (PMS; 0.06 mg/mL) in PBS for 4h. Then, the
(§37) absorbance was read in a microplate reader (Bio Tek - Power Wave XS) at 450 nm. The percentage of
(§38) viable parasites was calculated in relation to the control in order to determine the concentration that
(§39) inhibits 50% of the protozoa (IC 50).
as §12, §13, §14, §15, §16, §17, §18, §19, §20, §21

[4] = system: promastigote form of Leishmania amazonensis; assay: Antiproliferative assay, promastigote form of Leishmania amazonensis (XTT, 72 h); format: cell-based; details: for SI L-M, selectivity index (Macrophages CC50/L. amazonensis IC50): J774A1 vs promastigotes; for SI L-E, selectivity index (Epithelial CC50/L. amazonensis IC50): LLCMK2 vs promastigotes; for IC50: Leishmania amazonensis, promastigote form, 72 h, mean ± standard deviation, read-out: L. amazonensis IC50
Protocol: as §1, §24, §25, §26, §27, §28, §3, §4, §5, §6, §7, §8, §9, §10, §29, §30, §31, §32, §33, §34, §35, §36, §37, §38, §39, §12, §13, §14, §15, §16, §17, §18, §19, §20, §21

| IC50 [3] | melting point | Compound | CC50 at 48 h [1] | CC50 at 72 h [2] | SI T-M, selectivity index (Macrophages CC50/T. cruzi IC50) [3] | SI T-E, selectivity index (Epithelial CC50/T. cruzi IC50) [3] | SI L-M, selectivity index (Macrophages CC50/L. amazonensis IC50) [4] | SI L-E, selectivity index (Epithelial CC50/L. amazonensis IC50) [4] | IC50 [4] |
| --- | --- | --- | --- | --- | --- | --- | --- | --- | --- |
| 41.6 ± 5.3 µM | 243.3 °C | Nc1nnc(-c2c(C(F)(F)F)nn(-c3ccccc3)c2-c2ccc(F)cc2)s1 [4b, 4-[(2-amino)-1,3,4-thiadiazo-5-yl]-3-trifluoromethyl-5-(4-fluorophenyl)-1-phenyl-1H-pyrazole] | 249 ± 6.2 µM | 146 ± 5.4 µM | 5.99 | 3.52 | 6.17 | 3.63 | 40.4 ± 3.2 µM |
| 40.5 ± 3.1 µM | 224.9 °C | Nc1nnc(-c2c(C(F)(F)F)nn(-c3ccccc3)c2-c2ccc(Cl)cc2)s1 [4c, 4-[(2-amino)-1,3,4-thiadiazo-5-yl]-5-(4-chlorophenyl)-3-trifluoromethyl-1-phenyl-1H-pyrazole] | 385 ± 5.8 µM | 350 ± 6.1 µM | 9.51 | 8.63 | 10.67 | 9.68 | 36.1 ± 2.8 µM |
| 26.7 ± 1.4 µM | 239.2 °C | Nc1nnc(-c2c(C(F)(F)F)nn(-c3ccccc3)c2-c2ccc(Br)cc2)s1 [4d, 4-[(2-amino)-1,3,4-thiadiazo-5-yl]-5-(4-Bromophenyl)-3-trifluoromethyl-1-phenyl-1H-pyrazole] | 147 ± 3.2 µM | 120 ± 2.5 µM | 5.51 | 4.50 | 10.01 | 8.17 | 14.7 ± 0.9 µM |
| 22.8 ± 1.2 µM | 239.1 °C | COc1ccc(-c2c(-c3nnc(N)s3)c(C(F)(F)F)nn2-c2ccccc2)cc1 [4f, 4-[(2-amino)-1,3,4-thiadiazo-5-yl]-3-trifluoromethyl-5-(4-methoxyphenyl)-1-phenyl-1H-pyrazole] | 156 ± 4.1 µM | 134 ± 5.1 µM | 6.86 | 5.87 | 9.14 | 7.83 | 17.1 ± 1.6 µM |
| 80.8 ± 3.7 µM | 155.2 to 156.1 °C | O=Cc1c(C(F)(F)F)nn(-c2ccccc2)c1-c1ccc([N+](=O)[O-])cc1 [compound 5, 3-trifluoromethyl-4-formyl-5-(4-nitrophenyl)-1-phenyl-1H-pyrazole] | 245 ± 2.7 µM | 422 ± 12.3 µM | 3.03 | 5.22 | 3.35 | 5.76 | 73.1 ± 2.8 µM |
